In patent US9359298B2, “Cajanine structure analogous compound, preparation method and use” (INSTITUTE OF MEDICINAL BIOTECHNOLOGY, CHINESE ACADEMY OF …, priority 2011, dated 2016):
Converted amounts (≈) assume the structure as drawn. Read-outs that look alike come from different tables or passages of the source.

Tests used:
Assay type in all cases: cell-based
[1] = tested on: Influenza A virus (hanfang359/95); assay: Determination of anti-influenza virus activity (CPE in MDCK cells); settings: for IC50: Influenza A virus, MDCK, 36 h; for anti-influenza virus activities compared with the lead compound cajanine: statement in words
Coxsackie virus B6 = assay: Coxsackie virus activity assay (CPE in Vero cells); settings: Vero
HCV = assay: Anti-hepatitis C virus (HCV) activity assay (HCV RNA in Huh7.5 cells); settings: for EC50: Hepatitis C virus, Huh7.5, 72 h, read-out: HCV EC50; for anti-HCV viral activity: statement in words
Experimental: Inoculate Huh7.5 cells into 96-well plates to a density of 3×10^4 cells/cm^2, culture for 24h, infect the cells with 45 IU/cell HCV supernatant, meanwhile, add drug solutions or solvent control for treatment.

HIV-1 III B virus = assay: Anti-HIV activity assay (P24 antigen in MT-4 cells); settings: for IC50: Human immunodeficiency virus 1, MT4, 96 h, read-out: HIV IC50; for anti-HIV viral activity: statement in words
[2] = read-out: COX-B6 IC50, Vero cells, about 100TCID50, CPE, Reed-Muench
[3] = Huh7.5 cells, 72 h, HCV RNA by RT-PCR, Reed-Muench
[4] = MT-4 cells, HIV-1 III B 100TCID50, 96 h, P24 antigen

Row | SMILES | IC50 [1] [µg/mL] | IC50 (Coxsackie virus B6; [2]) [µg/mL] | EC50 (HCV; [3]) [µg/mL] | anti-HCV viral activity (HCV) | IC50 (HIV-1 III B virus; [4]) [µg/mL] | anti-HIV viral activity (HIV-1 III B virus) | anti-influenza virus activities compared with the lead compound cajanine [1] | IC50 (HIV-1 III B virus) [µg/mL] | IC50 (Coxsackie virus B6; read-out: COX-B6 IC50) [µg/mL] | EC50 (HCV) [µg/mL]
1 | COC(=O)c1c(/C=C/c2ccccn2)cc(OC)c(CC=C(C)C)c1O [Compound 8t, methyl 2-hydroxy-3-isopentenyl-4-methoxy-6-[(E)-2-(pyrid-2-yl)ethenyl]benzoate] | 0.12 (≈ 0.34 µM) | 1.32 (≈ 3.73 µM) | 0.64 (≈ 1.81 µM) | stronger anti-HIV, HCV viral activities | 0.6 (≈ 1.7 µM) | stronger anti-HIV, HCV viral activities |  |  |  | 
2 | COC(=O)c1c(/C=C/c2cc(OC)c(OC)c(OC)c2)cc(OC)c(CC=C(C)C)c1O [Compound 8u, methyl 2-hydroxy-3-isopentenyl-4-methoxy-6-[(E)-(3,4,5-trimethoxy-styryl)]benzoate] | 0.11 (≈ 0.249 µM) | 1.65 (≈ 3.73 µM) | 0.67 (≈ 1.51 µM) | stronger anti-HIV, HCV viral activities | 1.49 (≈ 3.37 µM) | stronger anti-HIV, HCV viral activities |  |  |  | 
3 | COC(=O)c1c(/C=C/c2cc(OC)ccn2)cc(OC)c(CC=C(C)C)c1O [Compound 8v, methyl 2-hydroxy-3-isopentenyl-4-methoxy-6-[(E)-2-(4-methoxypyrid-2-yl)ethenyl]benzoate] | 0.87 (≈ 2.27 µM) | 2.68 (≈ 6.99 µM) | 2.39 (≈ 6.23 µM) | stronger anti-HIV, HCV viral activities | 1.01 (≈ 2.63 µM) | stronger anti-HIV, HCV viral activities |  |  |  | 
4 | COC(=O)c1c(/C=C/c2ccccc2)cc(OC)c(CC=C(C)C)c1OC(=O)CN [Compound 24a] | 2.31 (≈ 5.64 µM) | 3.21 (≈ 7.84 µM) | 0.98 (≈ 2.39 µM) |  | 1.79 (≈ 4.37 µM) |  |  |  |  | 
5 | COc1cc(/C=C/c2ccccc2)cc(OC(=O)CN)c1CC=C(C)C [Compound 24c, 2-isopentenyl-3-aminoacetoxy-5-[(E)styryl]anisole] | 1.24 (≈ 3.53 µM) | 0.98 (≈ 2.79 µM) | 0.94 (≈ 2.67 µM) |  | 2.78 (≈ 7.91 µM) |  |  |  |  | 
6 | COC(=O)c1c(/C=C/c2ccccc2)cc(OC)c(CC=C(C)C)c1OC(=O)C1CCCN1 (stereo not shown) [Compound 24d] | 0.12 (≈ 0.267 µM) | 0.45 (≈ 1 µM) | 0.87 (≈ 1.94 µM) |  | 0.81 (≈ 1.8 µM) |  |  |  |  | 
7 | COc1cc(/C=C/c2ccccc2)cc(OC(=O)C2CCCN2)c1CC=C(C)C (stereo not shown) [Compound 24f] | 0.13 (≈ 0.332 µM) | 0.21 (≈ 0.536 µM) | 0.69 (≈ 1.76 µM) |  | 1.01 (≈ 2.58 µM) |  | significantly stronger than the lead compound cajanine |  |  | 
8 | COC(=O)c1c(/C=C/c2ccccc2)cc(OC)c(CC=C(C)C)c1OC(C)=O [Compound 24g, methyl 2-acetoxy-3-isopentenyl-4-methoxy-6-[(E)-styryl]benzoate] | 0.25 (≈ 0.634 µM) | 1.65 (≈ 4.18 µM) | 0.83 (≈ 2.1 µM) |  | 0.33 (≈ 0.837 µM) |  | significantly stronger than the lead compound cajanine |  |  | 
9 | COc1cc(/C=C/c2ccccc2)cc(OC(C)=O)c1CC=C(C)C [Compound 24i] | 0.15 (≈ 0.446 µM) | 0.92 (≈ 2.73 µM) | 0.99 (≈ 2.94 µM) |  | 2.09 (≈ 6.21 µM) |  | significantly stronger than the lead compound cajanine |  |  | 
10 | COC(=O)c1c(/C=C/c2ccccc2)cc(OC)c(CC=C(C)C)c1OC(=O)c1cccnc1 [Compound 24j, 2-(pyridyl-3-formylox)-3-isopentenyl-4-methoxy-6-[(E)-styryl]-benzoate] | 2.36 (≈ 5.16 µM) | 3.61 (≈ 7.89 µM) | 1.35 (≈ 2.95 µM) |  | 2.65 (≈ 5.79 µM) |  |  |  |  | 
11 | COc1cc(/C=C/c2ccccc2)cc(OC(=O)c2cccnc2)c1CC=C(C)C [Compound 24l, 2-isopentenyl-3-(pyridyl-3-formyloxy)-5-[(E)-styryl]anisole] | 1.04 (≈ 2.6 µM) | 0.95 (≈ 2.38 µM) | 1.6 (≈ 4.01 µM) |  | 1.4 (≈ 3.5 µM) |  |  |  |  | 
12 | COC(=O)c1c(/C=C/c2ccccc2)cc(OC)c(CC=C(C)C)c1OC(=O)CN(C)C [Compound 24m, 2-(N,N-dimethylacetyloxy)-3-isopentenyl-4-methoxy-6-[(E)-styryl]benzoate] | 6.52 (≈ 14.9 µM) | 3.46 (≈ 7.91 µM) | 0.8 (≈ 1.83 µM) |  | 2.6 (≈ 5.94 µM) |  |  |  |  | 
13 | COc1cc(/C=C/c2ccccc2)cc(OC(=O)CN(C)C)c1CC=C(C)C [Compound 24o, 2-isopentenyl-3-(N,N-dimethylacetoxy)-5-[(E)-styryl]anisole] | 2.31 (≈ 6.09 µM) | 1.21 (≈ 3.19 µM) | 1.34 (≈ 3.53 µM) |  | 0.69 (≈ 1.82 µM) |  |  |  |  | 
14 | COC(=O)c1c(/C=C/c2ccccc2)cc(OC)c(CC=C(C)C)c1OC(=O)c1cnc[nH]1 [Compound 24p] | 1.32 (≈ 2.96 µM) | 2.36 (≈ 5.29 µM) | 0.77 (≈ 1.72 µM) |  | 0.31 (≈ 0.694 µM) |  |  |  |  | 
15 | COc1cc(/C=C/c2ccccc2)cc(OC(=O)c2cnc[nH]2)c1CC=C(C)C [Compound 24r] | 0.98 (≈ 2.52 µM) | 0.68 (≈ 1.75 µM) | 1.05 (≈ 2.7 µM) |  | 2.31 (≈ 5.95 µM) |  |  |  |  | 
16 | COC(=O)c1c(/C=C/c2ccccc2)cc(OC)c(CC=C(C)C)c1OCN [Compound 26a] | 2.31 (≈ 6.06 µM) | 6.54 (≈ 17.1 µM) | 2.09 (≈ 5.48 µM) |  | 1.73 (≈ 4.54 µM) |  |  |  |  | 
17 | COc1cc(/C=C/c2ccccc2)cc(OCN)c1CC=C(C)C [Compound 26c, 2-isopentenyl-3-aminomethoxy-5-[(E)-styryl]anisole] | 1.35 (≈ 4.17 µM) | 2.64 (≈ 8.16 µM) | 2.07 (≈ 6.4 µM) |  | 3.18 (≈ 9.83 µM) |  |  |  |  | 
18 | COC(=O)c1c(/C=C/c2ccccc2)cc(OC)c(CC=C(C)C)c1OCC1CNCCN1 (stereo not shown) [Compound 26d, methyl 2-(piperazin-2-yl)methoxy-3-isopentenyl-4-methoxy-6-[(E)-styryl]benzoate] | 1.36 (≈ 3.02 µM) | 2.75 (≈ 6.1 µM) | 1.53 (≈ 3.4 µM) |  |  |  |  | 1.36 (≈ 3.02 µM) |  | 
19 | COc1cc(/C=C/c2ccccc2)cc(OCC2CNCCN2)c1CC=C(C)C (stereo not shown) [Compound 26f, 2-isopentenyl-3-(piperazin-2-yl)methoxy-5-[(E)-styryl]anisole] | 0.68 (≈ 1.73 µM) | 0.98 (≈ 2.5 µM) | 1.39 (≈ 3.54 µM) |  | 1.61 (≈ 4.1 µM) |  | significantly stronger than the lead compound cajanine |  |  | 
20 | COC(=O)c1c(/C=C/c2ccccc2)cc(OC)c(CC=C(C)C)c1OC(=N)N [Compound 27a, 2-iso-ureido-3-isopentenyl-4-methoxy-6-[(E)-styryl]-benzoate] | 1.32 (≈ 3.35 µM) | 2.34 (≈ 5.93 µM) | 1.34 (≈ 3.4 µM) |  | 2.48 (≈ 6.29 µM) |  |  |  |  | 
21 | COc1cc(/C=C/c2ccccc2)cc(OC(=N)N)c1CC=C(C)C [Compound 27c, 2-isopentenyl-3-isoureido-5-[(E)-styryl]anisole] | 0.54 (≈ 1.61 µM) | 0.92 (≈ 2.73 µM) | 1.26 (≈ 3.75 µM) |  | 2.03 (≈ 6.03 µM) |  |  |  |  | 
22 | COC(=O)c1c(/C=C/c2ccccc2)cc(OC)c(CC=C(C)C)c1OC(=O)NN [Compound 29a, methyl 2-Hydrazinoformyloxy-3-isopentenyl-4-methoxy-6-[(E)-styryl]benzoate] | 0.98 (≈ 2.39 µM) |  |  | stronger anti-HIV, HCV viral activities |  | stronger anti-HIV, HCV viral activities |  | 0.43 (≈ 1.05 µM) | 1.36 (≈ 3.31 µM) | 0.51 (≈ 1.24 µM)
23 | CCOC(=O)C1=C[C@@H](OC(CC)CC)[C@H](NC(C)=O)[C@@H](N)C1 [Oseltamivirphosphate, reference compound] | 0.22 (≈ 0.704 µM) |  |  |  |  |  |  |  |  | 
24 | NC(=O)c1ncn([C@@H]2O[C@H](CO)[C@@H](O)[C@H]2O)n1 [RBV, Ribavirin, reference compound] | 0.59 (≈ 2.42 µM) | 412 (≈ 1690 µM) |  |  |  |  |  |  |  | 
